In patent US20230123334A1, “AMINO LIPID COMPOUND, PREPARATION METHOD THEREFOR, AND APPLICATION THEREOF” (SHENZHEN SHENXIN BIOTECHNOLOGY CO., LTD., priority 2020, published 2023):

The compounds below were run on HEK293 cells (assay: Preliminary screening as mRNA vectors, EGFP mRNA transfection of HEK293 cells). Settings: EGFP mRNA 50 ng per well, 96-well plates; percentage of GFP fluorescent cells relative to total number of cells (Hoechst).
Type: cell-based
Summary of the method: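 Each well of HEK293 cells received 50 ng of EGFP mRNA. Efficiency was expressed as percent GFP-expressing cells over Hoechst-defined total cell number.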

SMILES | Absolute mRNA transfection efficiency in HEK293 cells [%]
CCCCCCCCCCCCCCCCCCSc1nc(NCCCCCCCCCCCC)nc(NCC2CCN(C)CC2)n1 [Compound D10S18N12] | 2.0
CCCCCCCCCCCCCCSc1nc(NCCCCCCCCCCCCC)nc(NCCN(CC)CC)n1 [Compound D7S14N13] | 11.7
CCCCCCCCCCCCSc1nc(NCCN(C)C)nc(SCCCCCC)n1 [Compound D1S6S12] | 0.6
CCCCCCCCCCCCCCCCCCSc1nc(NCCCCCC)nc(NCCCN2CCOCC2)n1 [Compound D8S18N6] | 1.0
CCCCCCCCCCSc1nc(NCCCCCCCCC)nc(NCCCN(C)C)n1 [Compound D6S10N9] | 8.7
CCCCCCCCCCCCCCCCSc1nc(NCC2CCN(C)CC2)nc(N(CCCCCCCCCCCC)CCCCCCCCCCCC)n1 [D10S16^2N12] | 0.2
CCCCCCCCCCCCCCCNc1nc(NCCCN2CCOCC2)nc(SCCCCCC)n1 [Compound D8S6N15] | 0.1
CCCCCCCCCCCCN(CCCCCCCCCCCC)c1nc(NCCN(CC)CC)nc(SCCCCCCCCCCC)n1 [D7S11^2N12] | 0.7
CCCCCCCCCCCSc1nc(NCCCCCC)nc(NCCN2CCCCC2)n1 [Compound D4S11N6] | 2.7
CCCCCCCCCCCCCCCSc1nc(NCCCN(C)C)nc(N(CCCCCCCCCCCC)CCCCCCCCCCCC)n1 [D6S15^2N12] | 2.9
CCCCCCCCCNc1nc(NCCN2CCOCC2)nc(SCCCCCC)n1 [Compound D2S6N9] | 0.8
CCCCCCCCCCCCN(CCCCCCCCCCCC)c1nc(NCCCN2CCOCC2)nc(SCCCCCCCCCCC)n1 [D8S11^2N12] | 0.4
CCCCCCCCCCSc1nc(NCCCN2CCOCC2)nc(SCCCCCCC)n1 [Compound D8S7S10] | 11.4
CCCCCCCCCCCNc1nc(NCCN(C)C)nc(SCCCCCC)n1 [Compound D1S6N11] | 1.0
CCCCCCCCCCCCCCCCCCSc1nc(NCCCCCCCCC)nc(NCCN2CCCC2)n1 [Compound D3S18N9] | 72.3
CCCCCCCCCCCCCCCCNc1nc(NCCCN(C)C)nc(SCCCCCCCCCC)n1 [Compound D6S10N16] | 51.5
CCCCCCCCCCCCCCCCCCSc1nc(NCCCCCCCCCCCCCCC)nc(NCCN2CCCCC2)n1 [Compound D4S18N15] | 1.6
CCCCCCCCSc1nc(NCC2CCN(C)CC2)nc(SCCCCCCC)n1 [Compound D10S7S8] | 32.9
CCCCCCCCNc1nc(NCCN(C)C)nc(SCCCCCC)n1 [Compound D1S6N8] | 3.1
CCCCCCCCCCCCCCCNc1nc(NCCCN2CCN(C)CC2)nc(SCCCCCCCCC)n1 [Compound D9S9N15] | 6.3
CCCCCCCCCCCCCCCCSc1nc(NCCCCCCCCCCC)nc(NCCN(C)C)n1 [Compound D1S16N11] | 19.8
CCCCCCCCCCCCCCCCCCSc1nc(NCCN(CC)CC)nc(SCCCCCCC)n1 [Compound D7S7S18] | 7.1
CCCCCCCCCCCCCNc1nc(NCC2CCN(C)CC2)nc(SCCCCCCCCC)n1 [Compound D10S9N13] | 75.8

SMILES | Absolute mRNA transfection efficiency in HEK293 cells [%]
CCCCCCCCCCCCCNc1nc(NCCCN2CCOCC2)nc(SCCCCCCCC)n1 [Compound D8S8N13] | 1.5
CCCCCCCCCCCCCCCCCCNc1nc(NCCN2CCOCC2)nc(SCCCCCC)n1 [Compound D2S6N18] | 4.5
CCCCCCCCCCCCCCSc1nc(NCCCCCCCCCCCCC)nc(NCCN2CCCC2)n1 [Compound D3S14N13] | 25.9
CCCCCCCCCCCNc1nc(NCCCN2CCOCC2)nc(SCCCCCCCCCC)n1 [Compound D8S10N11] | 0.1
CCCCCCCCCCCCNc1nc(NCC2CCN(C)CC2)nc(SCCCCCCCCCC)n1 [Compound D10S10N12] | 15.5
CCCCCCCCCCCCCCSc1nc(NCCCN(C)C)nc(N(CCCCCCCCCCCC)CCCCCCCCCCCC)n1 [D6S14^2N12] | 0.1
CCCCCCCCCCCCCCCCNc1nc(NCCCN2CCN(C)CC2)nc(SCCCCCC)n1 [Compound D9S6N16] | 29.6
CCCCCCCCCCCCN(CCCCCCCCCCCC)c1nc(NCCCN(C)C)nc(SCCCCCCCCCC)n1 [D6S10^2N12] | 0.1
CCCCCCCCCCCSc1nc(NCCCCCCCCC)nc(NCCCN(C)C)n1 [Compound D6S11N9] | 45.1
CCCCCCCCCCCCCCCCSc1nc(NCCCCCCC)nc(NCCN2CCOCC2)n1 [Compound D2S16N7] | 10.0
CCCCCCCCCCCCCCCCSc1nc(NCCCN(C)C)nc(N(CCCCCCCCCCCC)CCCCCCCCCCCC)n1 [D6S16^2N12] | 1.0
CCCCCCCCCCCCCCCCCCNc1nc(NCCCN(C)C)nc(SCCCCCCC)n1 [Compound D6S7N18] | 49.2
CCCCCCCCCCCCCCCNc1nc(NCCCN2CCOCC2)nc(SCCCCCCCC)n1 [Compound D8S8N15] | 4.6
CCCCCCCCCCCNc1nc(NCCN2CCN(C)CC2)nc(SCCCCCCC)n1 [Compound D5S7N11] | 8.2
CCCCCCCCSc1nc(NCCCCCC)nc(NCCN2CCCC2)n1 [Compound D3S8N6] | 2.6
CCCCCCCCCNc1nc(NCC2CCN(C)CC2)nc(SCCCCCCCCC)n1 [Compound D10S9N9] | 70.0
CCCCCCCCCCCCSc1nc(NCCCCCCCCC)nc(NCCCN2CCN(C)CC2)n1 [Compound D9S12N9] | 25.6
CCCCCCCCCCCCNc1nc(NCCN2CCCC2)nc(SCCCCCCCCCCCC)n1 [Compound D3S12N12] | 10.8
CCCCCCCCCCCSc1nc(NCCCCCCCC)nc(NCCN(CC)CC)n1 [Compound D7S11N8] | 13.4
CCCCCCCCCCCCCCCCCCNc1nc(NCCN2CCN(C)CC2)nc(SCCCCCCCCCCCC)n1 [Compound D5S12N18] | 0.0
CCCCCCCCCCCCCCCCNc1nc(NCCN2CCN(C)CC2)nc(SCCCCCCCCCC)n1 [Compound D5S10N16] | 3.9
CCCCCCCCNc1nc(NCCCN(C)C)nc(SCCCCCCCC)n1 [Compound D6S8N8] | 3.5
CCCCCCCCCCCCSc1nc(NCCCCCC)nc(NCCCN2CCOCC2)n1 [Compound D8S12N6] | 0.9

SMILES | Absolute mRNA transfection efficiency in HEK293 cells [%]
CCCCCCCCCCCCCCCCCCNc1nc(NCCN2CCN(C)CC2)nc(SCCCCCCCCCC)n1 [Compound D5S10N18] | 2.3
CCCCCCCCSc1nc(NCCN2CCCC2)nc(SCCCCCC)n1 [Compound D3S6S8] | 1.6
CCCCCCCCCCCCCCCCCCNc1nc(NCCN2CCN(C)CC2)nc(SCCCCCCCC)n1 [Compound D5S8N18] | 29.9
CCCCCCCCCCCCCCCCSc1nc(NCCCCCCC)nc(NCCN2CCN(C)CC2)n1 [Compound D5S16N7] | 82.6
CCCCCCCCCCCNc1nc(NCCCN2CCOCC2)nc(SCCCCCCCCCCC)n1 [Compound D8S11N11] | 3.6
CCCCCCCCCCCCSc1nc(NCC2CCN(C)CC2)nc(SCCCCCCC)n1 [Compound D10S7S12] | 80.4
CCCCCCCCCCCCCCSc1nc(NCCCCCCC)nc(NCC2CCN(C)CC2)n1 [Compound D10S14N7] | 55.0
CCCCCCCSc1nc(NCCCN2CCOCC2)nc(SCCCCCCC)n1 [Compound D8S7S7] | 5.0
CCCCCCCCCCCCSc1nc(NCCCN2CCOCC2)nc(SCCCCCCCC)n1 [Compound D8S8S12] | 67.9
CCCCCCCCCCCCCCCCCCSc1nc(NCCCCCCCCC)nc(NCCN2CCN(C)CC2)n1 [Compound D5S18N9] | 11.6
CCCCCCCCCCCCCCCCNc1nc(NCCCN2CCOCC2)nc(SCCCCCCCC)n1 [Compound D8S8N16] | 4.9
CCCCCCCCCNc1nc(NCCCN2CCN(C)CC2)nc(SCCCCCCCCC)n1 [Compound D9S9N9] | 76.1
CCCCCCCCCCCCCCCCSc1nc(NCCCCCCCC)nc(NCCN(CC)CC)n1 [Compound D7S16N8] | 6.5
CCCCCCCCCCCCNc1nc(NCC2CCN(C)CC2)nc(SCCCCCCCCC)n1 [Compound D10S9N12] | 57.0
CCCCCCCCCCCSc1nc(NCCCCCC)nc(NCCN2CCCC2)n1 [Compound D3S11N6] | 18.1
CCCCCCCSc1nc(NCCCN2CCN(C)CC2)nc(SCCCCCC)n1 [Compound D9S6S7] | 6.3
CCCCCCCCCCCCCCCSc1nc(NCCN(C)C)nc(N(CCCCCCCCCCCC)CCCCCCCCCCCC)n1 [D1S15^2N12] | 0.3
CCCCCCCCCCCCCCCNc1nc(NCCN2CCN(C)CC2)nc(SCCCCCC)n1 [Compound D5S6N15] | 16.4
CCCCCCCCCCSc1nc(NCCCCCCCC)nc(NCCN2CCOCC2)n1 [Compound D2S10N8] | 0.5
CCCCCCCCCCCCN(CCCCCCCCCCCC)c1nc(NCCN2CCOCC2)nc(SCCCCCCCCC)n1 [D2S9^2N12] | 0.1
CCCCCCCCCCCCCCSc1nc(NCCCCCCCCCCCC)nc(NCCN2CCN(C)CC2)n1 [Compound D5S14N12] | 11.3
